The values below come from patent US11166948B2, “Pharmaceutical composition for treatment of aortic aneurysm” (National University Corporation Hamamatsu University School …, priority 2017, dated 2021).

For experiment [1], the system named is aortic wall hypoxia-induced rat AAA model. The experiment in a line: Action of Compound 1 in aortic wall hypoxia-induced rat AAA model. It counts as in vivo. To be noted: vs control group; for mortality due to rupture (non-rupture survival rate): day of operation to Day 28 post operation. The text has this: The action of Compound 1 in a rat AAA model (Non-Patent Document 3) induced by operation in which the aortic wall was separated from the surrounding tissue, a catheter was inserted, and then the abdominal aorta was ligated together with a catheter with a thread was studied.
In this test, Compound 1 was manufactured according to the method described in Patent Document 1, and mixed, in a proportion of 0.15%, with a normal diet (FR2, manufactured by Funabashi Farm Co., Ltd.), and the Compound 1-mixed diet was used.
Sprague-Dawley male rats (300 to 350 g: Japan SLC, Inc.) were used in the experiment. The rats were reared at room temperature of 25° C. ±1° C., and allowed to freely take the feed and water.
The model was created according to the method described in Non-Patent Document 3. Specifically, a rat AAA model was created by separating the rat aortic wall from the surrounding tissue, inserting a polyurethane catheter, and then ligating the abdominal aorta together with a plastic catheter with a monofilament thread, and inducing AAA.
The rat models were divided into two groups: a normal diet administration group (hereinafter referred to as “control group”) (n=20) and a 0.15% Compound 1-mixed diet administration group (hereinafter referred to as “Compound 1 group”) (n=20). The normal diet or Compound 1-mixed diet was freely fed in a period from one week before the AAA model creation operation (7 days before operation) to the end of the experiment.
In both the groups, up to 28 days post operation, the aneurysm diameter was measured by echo and comparison in survival was made.
In addition, the surviving animals were sacrificed after 28 days to analyze the AAA pathological tissue.
The AAA maximum short-axis diameter was measured with an ultrasonic diagnostic apparatus (Vevo770, manufactured by VisualSonics Inc.) on the day of operation and Day 7, Day 14, Day 21 and Day 28 post operation.
In the same models as in Example 1, the effect of Compound 1 on the formed AAA was studied.
Specifically, the administration of the Compound 1-mixed diet was started one week after the AAA model creation operation (7 days after operation) until the end of the experiment in this example, in place of one week before the AAA model creation operation (7 days before operation) until the end of the experiment in Example 1 (3). In addition, on Day 7 post operation, rats having an aortic aneurysm diameter of 3 mm or more were selected by measurement with an ultrasonic diagnostic apparatus (Vevo770, manufactured by VisualSonics Inc.), and then the rats were randomly divided into two groups: a normal diet administration group (hereinafter referred to as “control group”) (n=18) and a 0.15% Compound 1-mixed diet administration group (hereinafter referred to as “Compound 1 group”) (n=15). […]

Experiment [2] deals with elastase-induced model rats. The following applies: preventive administration before AAA formation; cited from earlier work.

Turning to `O=C(NCCCOc1ccc2[nH]c(=O)ccc2c1)N(C1CC1)[C@@H]1CCCC[C@H]1O` [Compound 1, (−)-6-[3-[3-cyclopropyl-3-[(1R,2R)-2-hydroxycyclohexyl]ureido]propoxy]-2(1H)-quinolinone], the “aneurysm diameter (AAA maximum short-axis diameter)” value is on record as “tendency toward suppression of the increase in the aneurysm diameter” in experiment [1] (Example 1: 0.15% Compound 1-mixed diet from 7 days before operation to end of experiment, echo up to Day 28 post operation, no significant difference) and “significantly lower” in experiment [1] (Example 2: 0.15% Compound 1-mixed diet from 7 days after operation (formed AAA, diameter 3 mm or more), Day 7 to Day 14 post operation, p=0.014). Also, the “mortality due to rupture (non-rupture survival rate)” value in experiment [1] (Example 1: 0.15% Compound 1-mixed diet from 7 days before operation, Log Rank p=0.036) is reported as “significantly lower”; in experiment [1] (Example 2: 0.15% Compound 1-mixed diet from 7 days after operation (formed AAA), Log Rank p=0.055), “lower”.

As to `O=C1CCc2cc(OCCCCc3nnnn3C3CCCCC3)ccc2N1` [cilostazol], in experiment [2], the AAA dilatation result is listed as “suppresses AAA dilatation”.
